Data taken from patent publication US10273242B2, “Compound inhibiting activities of BTK and/or JAK3 kinases” (BEIJING HANMI PHARMACEUTICAL CO., LTD., priority 2013, dated 2019).

Key:
BTK kinase = target: T1, BTK kinase (Homo sapiens, UniProt Q06187); assay: BTK kinase activity inhibition assay (ADP-Glo); format: biochemical; details: ATP 50 μM
T1 construct: purchased Invitrogen PV3363
Experimental: The BTK kinase (purchased from Invitrogen, No.: PV3363) was diluted with reaction buffer (40 mM Tris-HCl, pH 7.5; 20 mM MgCl2, 0.1 mg/ml BSA; 1 mM DTT; 2 mM MnCl2) to 2 times of the final concentration (which is 1.1 ng/μL) and added with 5 μL/well to a 96-well plate. The compounds of the present invention were serial diluted with deionized water to four times (i.e., 40 μM, 4 μM, 0.4 μM, 80 nM, 16 nM, 3.2 nM, respectively) of the final concentrations (10 μM, 1 μM, 0.1 μM, 20 nM, 4 nM, 0.8 nM, respectively), and added at 2.5 μL/well to the test wells of the 96-well plate. After incubation at 25° C. for 10 minutes, ATP (50 μM) (purchased from Promega, No.: V9102) and 0.2 μg/μL of Poly E4Y1 (purchased from Sigma, No.: P0275-25MG) were added with 2.5 μL/well and incubated at 25° C. for 120 minutes. After the reaction was completed, 10 μL of the ADP-Glo reagent (ADP-Glo™ kinase assay kit, purchased from Promega, No.: V9102) was added to each well, and reacted at 25° C. for 40 minutes. Then 20 μL of the ADP-Glo kinase detection reagent was added to each well and reacted at 25° C. for 30 minutes. The kinase activity was detected by luminescence using the ADP-Glo kinase assay kit according to the manufacture's instruction, and IC50 values of the compounds of the present invention were calculated.

JAK3 kinase = target: T2, JAK3 kinase (Homo sapiens, UniProt P52333); assay: JAK3 kinase activity inhibition assay (ADP-Glo); format: biochemical; details: ATP 10 μM
T2 construct: purchased SignalChem J03-11G
Experimental: The JAK3 kinase (purchased from SignalChem, No.: J03-11G) was diluted with reaction buffer (40 mM Tris-HCl, pH 7.5; 20 mM MgCl2, 0.1 mg/ml BSA; 1 mM DTT) to 2 times of the final concentration (which is 0.5 ng/μL) and added with 5 μL/well to a 96-well plate. The compounds of the present invention were serial diluted with deionized water to four times (i.e., 40 μM, 4 μM, 0.4 μM, 80 nM, 16 nM, 3.2 nM, respectively) of the final concentrations (10 μM, 1 μM, 0.1 μM, 20 nM, 4 nM, 0.8 nM, respectively), and added with 2.5 μL/well to the test wells of the 96-well plate. After incubation at 25° C. for 10 minutes, 10 μM of ATP (purchased from Promega, No.: V9102) and 0.2 μg/μL of Poly E4Y1 (purchased from Sigma, No.: P0275-25MG) were added at 2.5 μL/well and reacted at 25° C. for 60 minutes. After the reaction was completed, 10 μL of the ADP-Glo reagent (ADP-Glo™ kinase assay kit, purchased from Promega, No.: V9102) was added to each well and reacted at 25° C. for 40 minutes. Then 20 μL of the ADP-Glo kinase detection reagent was added to each well and reacted at 25° C. for 30 minutes. The kinase activity was detected by luminescence using the ADP-Glo kinase assay kit according to the manufacture's instruction, and IC50 values of the compounds of the present invention were calculated.

T2 sequence (P52333 781-1124 limits assumed): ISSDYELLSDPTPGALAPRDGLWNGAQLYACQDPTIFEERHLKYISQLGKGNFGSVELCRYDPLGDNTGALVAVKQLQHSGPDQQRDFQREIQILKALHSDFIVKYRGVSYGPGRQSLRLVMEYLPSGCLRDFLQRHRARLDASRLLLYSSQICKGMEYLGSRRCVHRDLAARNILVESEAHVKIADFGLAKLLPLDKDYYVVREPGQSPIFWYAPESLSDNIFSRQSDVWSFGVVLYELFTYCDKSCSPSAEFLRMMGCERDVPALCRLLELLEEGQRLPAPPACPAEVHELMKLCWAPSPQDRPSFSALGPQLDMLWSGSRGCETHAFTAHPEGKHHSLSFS
T1 sequence (Q06187 whole entry): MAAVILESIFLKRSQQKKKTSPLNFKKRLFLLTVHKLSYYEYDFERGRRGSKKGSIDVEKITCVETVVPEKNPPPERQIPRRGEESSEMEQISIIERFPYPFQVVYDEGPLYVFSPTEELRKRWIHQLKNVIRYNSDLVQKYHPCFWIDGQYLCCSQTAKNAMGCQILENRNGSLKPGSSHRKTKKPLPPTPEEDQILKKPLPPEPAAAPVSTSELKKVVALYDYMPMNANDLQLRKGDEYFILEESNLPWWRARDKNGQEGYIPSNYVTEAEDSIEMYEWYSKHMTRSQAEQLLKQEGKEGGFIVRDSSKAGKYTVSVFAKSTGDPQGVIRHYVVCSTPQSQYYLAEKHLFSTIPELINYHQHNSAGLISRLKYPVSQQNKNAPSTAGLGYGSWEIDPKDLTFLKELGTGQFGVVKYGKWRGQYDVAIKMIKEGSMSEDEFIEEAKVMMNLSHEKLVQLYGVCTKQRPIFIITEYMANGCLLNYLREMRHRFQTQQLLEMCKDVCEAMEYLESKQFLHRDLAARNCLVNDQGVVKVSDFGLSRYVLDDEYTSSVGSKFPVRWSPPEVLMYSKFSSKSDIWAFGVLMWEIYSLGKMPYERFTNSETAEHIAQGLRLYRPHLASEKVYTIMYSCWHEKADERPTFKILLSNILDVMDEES

| Structure (SMILES) | IC50 (BTK kinase) | IC50 (JAK3 kinase) |
| --- | --- | --- |
| C=CC(=O)N[C@H]1CC[C@@H](Nc2nc(Nc3ccc(OCCN4CCN(C)CC4)c(F)c3)nc3ccsc23)CC1 [Example 31] | ≤ 0.05 µM | – |
| C=CC(=O)N1CCC[C@@H](Nc2nc(Nc3cnn(C)c3)nc3sccc23)C1 [Example 103] | ≤ 0.05 µM | 0.1 to 1 µM |
| C=CC(=O)N1CCC[C@@H](Nc2nc(Nc3cnn(C)c3)nn3cccc23)C1 [Example 135] | ≤ 0.05 µM | 0.01 to 0.1 µM |
| C=CC(=O)N1CC(CNc2nc(Nc3cnn(C)c3)nc3ccoc23)C1 [Example 92, 1-(3-(((2-((1-methyl-1H-pyrazol-4-yl)amino)furo[3,2-d]pyrimidin-4-yl)amino)methyl)azetidin-1-yl)prop-2-en-1-one] | ≤ 0.05 µM | 0.1 to 1 µM |
| C=CC(=O)N[C@H]1CC[C@@H](Nc2nc(Nc3ccc(N4CCOCC4)cc3)nc3ccsc23)CC1 [Example 33] | 0.05 to 0.1 µM | – |
| C=CC(=O)N1CCC[C@@H](Nc2nc(Nc3cnn(C4CCC4)c3)nc3ccsc23)C1 [Example 129] | ≤ 0.05 µM | 0.01 to 0.1 µM |
| C=CC(=O)N1CCC[C@@H](Nc2nc(Nc3cnn(C)c3)nc3ccoc23)C1 [Example 95] | ≤ 0.05 µM | 0.01 to 0.1 µM |
| C=CC(=O)N1CC[C@@H](Nc2nc(Nc3cnn(CCN4CCOCC4)c3)nc3ccsc23)C1 [Example 126] | ≤ 0.05 µM | 0.01 to 0.1 µM |
| C=CC(=O)N1CC[C@@H](Nc2nc(Nc3cnn(C4CCC4)c3)nc3ccsc23)C1 [Example 120] | ≤ 0.05 µM | 0.01 to 0.1 µM |
| C=CC(=O)NC1CCC(Nc2nc(Nc3cnn(C)c3)nc3ccsc23)CC1 (centres unmarked) [Example 2] | ≤ 0.05 µM | – |
| C=CC(=O)N1CC(CNc2nc(Nc3cc(C)ns3)nc3ccsc23)C1 [Example 71] | ≤ 0.05 µM | ≤ 0.01 µM |
| C=CC(=O)N[C@H]1CC[C@@H](Nc2nc(Nc3ccc(NC4CCN(C)CC4)cc3)nc3ccsc23)CC1 [Example 43] | ≤ 0.05 µM | – |
| C=CC(=O)N1CC(CNc2nc(Nc3cnn(C4CCCC4)c3)nc3ccsc23)C1 [Example 112] | ≤ 0.05 µM | 0.01 to 0.1 µM |
| C=CC(=O)N[C@H]1CC[C@@H](Nc2nc(Nc3ccc(NC4CCN(C)CC4)c(F)c3)nc3ccsc23)CC1 [Example 44] | ≤ 0.05 µM | – |
| C=CC(=O)N1CC(CNc2nc(Nc3cnn(C(C)=O)c3)nc3ccsc23)C1 [Example 116] | ≤ 0.05 µM | 0.01 to 0.1 µM |
| C=CC(=O)N[C@H]1CC[C@@H](Nc2nc(Nc3cc(C)ns3)nc3ccsc23)CC1 [Example 8] | ≤ 0.05 µM | – |
| C=CC(=O)N[C@H]1CC[C@@H](Nc2nc(Nc3ccc(N4CCN(C)CC4)c(F)c3)nc3ccsc23)CC1 [Example 35] | ≤ 0.05 µM | – |
| C=CC(=O)N[C@H]1CC[C@@H](Nc2nc(Nc3ccc(NC4CCN(C(C)C)CC4)c(F)c3)nc3ccsc23)CC1 [Example 47] | ≤ 0.05 µM | – |
| C=CC(=O)N[C@H]1CC[C@@H](Nc2nc(Nc3ccc(NC4CCN(C)CC4)c(C)c3)nc3ccsc23)CC1 [Example 45] | 0.05 to 0.1 µM | – |
| C=CC(=O)N1CC[C@@H](Nc2nc(Nc3cnn(CC)c3)nc3ccsc23)C1 [Example 118] | ≤ 0.05 µM | 0.01 to 0.1 µM |
| C=CC(=O)N1CCC[C@@H](Nc2nc(Nc3cnn(C(C)C)c3)nc3ccsc23)C1 [Example 128] | ≤ 0.05 µM | 0.01 to 0.1 µM |
| C=CC(=O)N[C@H]1CC[C@@H](Nc2nc(Nc3ccc(N4CCN(C)CC4)c(C)c3)nc3ccsc23)CC1 [Example 36] | 0.05 to 0.1 µM | – |
| C=CC(=O)N[C@H]1CC[C@@H](Nc2nc(Nc3ccc(N4CCN(C)CC4)cc3)nc3ccsc23)CC1 [Example 34] | ≤ 0.05 µM | – |
| C=CC(=O)N1CC[C@@H](Nc2nc(Nc3cccs3)nc3ccsc23)C1 [Example 76] | ≤ 0.05 µM | 0.01 to 0.1 µM |
| C=CC(=O)N[C@H]1CC[C@@H](Nc2nc(Nc3cnn(C)c3)nc3ccoc23)CC1 [Example 57, N-(cis-4-((2-((1-methyl-1H-pyrazol-4-yl)amino)furo[3,2-d]pyrimidin-4-yl)amino)cyclohexyl)acrylamide] | ≤ 0.05 µM | – |

| Structure (SMILES) | IC50 (BTK kinase) | IC50 (JAK3 kinase) |
| --- | --- | --- |
| C=CC(=O)N1CC(CNc2nc(Nc3cccs3)nc3ccsc23)C1 [Example 72] | ≤ 0.05 µM | 0.01 to 0.1 µM |
| C=CC(=O)N[C@H]1CC[C@@H](Nc2nc(Nc3cnn(CCN4CCOCC4)c3)nc3ccsc23)CC1 [Example 18] | ≤ 0.05 µM | – |
| C=CC(=O)N1CC[C@@H](Nc2nc(Nc3cc(C)ns3)nc3ccoc23)C1 [Example 94] | ≤ 0.05 µM | ≤ 0.01 µM |
| C=CC(=O)N1CC(CNc2nc(Nc3cc(C)no3)nc3ccsc23)C1 [Example 69] | ≤ 0.05 µM | 0.01 to 0.1 µM |
| C=CC(=O)N1CC(CNc2nc(Nc3cnn(C)c3)nc3sccc23)C1 [Example 99, 1-(3-(((2-((1-methyl-1H-pyrazol-4-yl)amino)thieno[2,3-d]pyrimidin-4-yl)amino)methyl)azetidin-1-yl)prop-2-en-1-one] | 0.05 to 0.1 µM | 0.01 to 0.1 µM |
| C=CC(=O)N1CC[C@@H](N(C)c2nc(Nc3cnn(C)c3)nc3ccsc23)C1 [Example 105, (R)-1-(3-(methyl(2-((1-methyl-1H-pyrazol-4-yl)amino)thieno[3,2-d]pyrimidin-4-yl)amino)pyrrolidin-1-yl)prop-2-en-1-one] | ≤ 0.05 µM | 0.01 to 0.1 µM |
| C=CC(=O)N1CC(CNc2nc(Nc3cn[nH]c3)nc3ccsc23)C1 [Example 62] | ≤ 0.05 µM | 0.01 to 0.1 µM |
| C=CC(=O)N1CCC[C@@H](Nc2nc(Nc3cnn(CCOC)c3)nc3ccsc23)C1 [Example 131] | ≤ 0.05 µM | 0.01 to 0.1 µM |
| C=CC(=O)N[C@H]1CC[C@@H](Nc2nc(Nc3ccc(C(=O)N4CCN(C)CC4)c(F)c3)nc3ccsc23)CC1 [Example 51] | ≤ 0.05 µM | – |
| C=CC(=O)N[C@H]1CC[C@@H](Nc2nc(Nc3ccc(C(=O)N4CCN(C)CC4)cc3)nc3ccsc23)CC1 [Example 50] | ≤ 0.05 µM | – |
| C=CC(=O)N1CC[C@@H](Nc2nc(Nc3cnn(CCCOC)c3)nc3ccsc23)C1 [Example 123] | ≤ 0.05 µM | 0.01 to 0.1 µM |
| C=CC(=O)N[C@H]1CC[C@@H](Nc2nc(Nc3ccc(NC4CCN(C)CC4)c(Cl)c3)nc3ccsc23)CC1 [Example 46] | ≤ 0.05 µM | – |
| C=CC(=O)N[C@H]1CC[C@@H](Nc2nc(Nc3cnn(C4CCCC4)c3)nc3ccsc23)CC1 [Example 13] | ≤ 0.05 µM | – |
| C=CC(=O)N[C@H]1CC[C@@H](Nc2nc(Nc3ccc(C(=O)NC4CCN(C)CC4)c(F)c3)nc3ccsc23)CC1 [Example 52] | 0.05 to 0.1 µM | – |
| C=CC(=O)N[C@H]1CC[C@@H](Nc2nc(Nc3cnn(CCOC)c3)nc3ccsc23)CC1 [Example 15] | ≤ 0.05 µM | – |
| C=CC(=O)N[C@H]1CC[C@@H](Nc2nc(Nc3ccc(OC4CCN(C)CC4)c(F)c3)nc3ccsc23)CC1 [Example 49] | ≤ 0.05 µM | – |
| C=CC(=O)N[C@H]1CC[C@@H](Nc2nc(Nc3cn[nH]c3)nc3ccsc23)CC1 [Example 4] | ≤ 0.05 µM | – |
| C=CC(=O)N[C@H]1CC[C@@H](Nc2nc(Nc3cnn(C)c3)nc3ccsc23)CC1 [Example 1, N-(cis-4-((2-((1-methyl-1H-pyrazol-4-yl)amino)thieno[3,2-d]pyrimidin-4-yl)amino)cyclohexyl)acrylamide] | ≤ 0.05 µM | – |
| C=CC(=O)N1CC(CNc2nc(Nc3cnn(C)c3)nn3cccc23)C1 [Example 136] | ≤ 0.05 µM | – |
| C=CC(=O)N[C@H]1CC[C@@H](Nc2nc(Nc3cnn(C4CCC4)c3)nc3ccsc23)CC1 [Example 12] | ≤ 0.05 µM | – |
| C=CC(=O)N[C@H]1CC[C@@H](Nc2nc(Nc3cnn(CCF)c3)nc3ccsc23)CC1 [Example 16] | ≤ 0.05 µM | – |
| C=CC(=O)N[C@H]1CC[C@@H](Nc2nc(Nc3cnn(CCO)c3)nc3ccsc23)CC1 [Example 14] | ≤ 0.05 µM | – |
| C#CC(=O)N[C@H]1CC[C@@H](Nc2nc(Nc3cnn(C)c3)nc3ccsc23)CC1 [Example 60, N-(cis-4-((2-((1-methyl-1H-pyrazol-4-yl)amino)thieno[3,2-d]pyrimidin-4-yl)amino)cyclohexyl)propynamide] | ≤ 0.05 µM | – |
| C=CC(=O)N[C@H]1CC[C@@H](Nc2nc(Nc3ccc(OCCN4CCCCC4)c(F)c3)nc3ccsc23)CC1 [Example 30] | 0.05 to 0.1 µM | – |
| C=CC(=O)N[C@H]1CC[C@@H](Nc2nc(Nc3cnn(CCN(C)C)c3)nc3ccsc23)CC1 [Example 17] | 0.05 to 0.1 µM | – |
